{"source": "patent US20050261292A1", "about": "“Pharmaceutical composition containing N-sulfamoyl-N'-arylpiperazines for the treatment or inhibition of obesity and related conditions” (Solvay Pharmaceuticals GmbH, priority 2004, published 2005)", "key": {"[1]": {"test_system": "male fatty Zucker rats", "assay": "In vivo oral glucose tolerance test in the rat", "details": "100 mg/kg/day oral gavage", "experimental": "2. In vivo Oral Glucose Tolerance Test in the Rat\nThe studies were carried out in individually housed male fatty Zucker rats (n=10 per group) weighing ca. 250-500 g. The rats were kept on a normal 12/12 h light/dark cycle (lights on 07.00) and they were allowed food (lab chow) and water ad libitum except for during experiments, when they were fasted overnight before the glucose challenge.\nThe test substances of Formula I were suspended in 2% polyethylenglycol (=PEG) 1% carboxymethylcellulose and administered by oral gavage at a dose of 100 mg/kg/day; ⅓ of the dose (1 ml/kg, 33 mg/ml) was administered at 08.30-09.30 h; the remaining […] (2 ml/kg; 33 mg/ml) was administered between 16.00-17.00 h and the last ⅓ dose was given the following morning. Control animals received only the vehicle. On the day of the test, 45 min after the final dose of test substance/vehicle a blood sample (0 min) was taken (tail vein) immediately after which the rats received an oral glucose challenge (1.25 g/kg; 118 mg/ml). Further blood samples were taken at 30, 60, 90, 120 min after the glucose challenge. The second drop of blood of each sample was placed on a glucose test strip before this was placed in the glucose meter for determination of blood glucose level (Life Scan One Touch Ultra Blood® Glucose Meter and Life Scan One Touch Ultra® Test Strips; Life Scan Inc.; Milpitas, Calif. 95035). The remaining blood of each sample was spun and the plasma was frozen at −80° C. before analysis for insulin (1-2-3 Rat Insulin ELISA kit, Alpco Diagnostics).\nThe values obtained were plotted and the AUC for test compounds and vehicle (for glucose and insulin) were determined after which the percent control AUC, percent control maximum value and % control baseline were estimated, to determine the influence of the test compound on the glucose tolerance."}, "[2]": {"test_system": "dietary obese female Wistar rats", "assay": "Chronic influence on food and water intake and body weight gain in vivo (carcass composition, plasma parameters)", "design": "species or system rat", "details": "28 days, mean ± SEM; for Plasma glucose / Plasma insulin / Plasma leptin: plasma day 29", "experimental": "4. Chronic Influence on Food and Water Intake and Body Weight Gain in vivo\nFemale Wistar rats (weight range 250-300 g; Charles River, Margate, Kent) were housed in pairs in polypropylene cages with solid floors and sawdust bedding at a temperature of 21±4° C. and 55±20% humidity. Animals were maintained on a reverse phase light-dark cycle (lights off for 8 hours from 10.00-18.00 h) during which time the room was illuminated by red light. Animals had free access to powdered high fat diet (VRF1 plus 20% lard), ground chocolate, ground peanuts and tap water at all times. The three different diets were contained in separate glass feeding jars with aluminium lids (Solmedia Laboratory Suppliers, Romford, Essex). […] Animals were housed in pairs for twelve weeks. At least two weeks before the start of the baseline readings, animals were housed individually in polypropylene cages with wire grid floors to enable the food intake of each rat to be recorded. Polypropylene trays with cage pads were placed beneath each cage to detect any food spillage.\nAt the start of the study, animals were weighed (to the nearest 0.1 g using an electronic top-pan balance) and allocated into 6 weight-matched treatment groups, each containing 10 animals. Following a 7 day baseline run-in period, during which time all animals were dosed orally once a day with vehicle (1% Tylose MH50, 0.1% poloxamer 188), rats were given vehicle or test compound of Formula I for 28 days as described in Table 4 below: […]\nThe test substance of example 2 was suspended in 1% Tylose MH50, 0.1% poloxamer 188 and administered by oral gavage (2 ml/kg). All dosing occurred at the onset of the 8 hours dark period (spanning the period immediately before and after lights out). The second treatments were given 4 hours after the first. Rats, feeding jars and water bottles were weighed (to the nearest 0.1 g) every day at the time of administration of vehicle or test substance. At each reading, the tray below each cage was examined for spilt food, which was returned to the appropriate jar before weighing. However, spillage of food from the feeding jars was negligible. Variations in body weight and energy levels of the different types of food were accounted for by expressing the food intake results in terms of kJ/kg rat weight. Water intake results were expressed in g/kg.\nAnimals were killed at the end of the study (by CO2 to minimize any fluid loss) on day 29 and blood samples (5 ml whole blood/animal) were collected by cardiac puncture. Plasma was separated by centrifugation and stored at −75° C. until analysis. Following blood collection carcasses were weighed, frozen and stored at −75° C. for body composition analysis. Body fat, protein, water and ash levels of the carcasses were determined using standard chemical analysis techniques. Only fat, protein, water and ash content were measured as other components (mainly carbohydrate) form less than 2% of total body composition.\nCarcasses were individually milled at the temperature of liquid nitrogen, mixed and two representative samples taken. Carcass water was determined by freeze-drying the samples to constant weight. Carcass fat was determined on the freeze-dried samples using a modified Soxhlet extraction protocol (petroleum ether at 40-60° C.) with a Foss Soxtec® HT2 system (Foss UK Ltd, Wheldrake, UK) according to the manufacturers recommended protocol. Carcass protein was determined using a micro-Kjeldahl procedure on the freeze-dried samples using a Foss 2012® digestion block and Foss 2200® distilling unit (Foss UK Ltd). Residual carcass ash was determined by firing the freeze-dried samples at high temperatures using a muffle ashing furnace. Repeat determinations of the chemical analysis parameters were performed as necessary (e.g. if the duplicate samples differed by more than 1%)."}, "[3]": {"details": "30 mg/kg po twice daily (0 h, 4 h)"}, "[4]": {"details": "50 mg/kg po twice daily (0 h, 4 h)"}}, "note": "Structures can show the parent of a compound that is named as a salt.", "data": [{"compound": "NS(=O)(=O)N1CCN(c2ccccc2)CC1", "note": "[Example 2, N-Sulfamoyl-N′-phenylpiperazine hydrochloride]", "values": [{"measurement": "Glucose Baseline", "setting": "[1]; 0 min sample before glucose challenge", "result": "82 % of control"}, {"measurement": "Insulin Baseline", "setting": "[1]; 0 min sample before glucose challenge, plasma", "result": "85 % of control"}, {"measurement": "Glucose Maximal effect", "setting": "[1]; oral glucose challenge 1.25 g/kg", "result": "78 % of control"}, {"measurement": "Glucose AUC", "setting": "[1]; oral glucose challenge 1.25 g/kg, 0-120 min", "result": "84 % of control"}, {"measurement": "Insulin AUC", "setting": "[1]; oral glucose challenge 1.25 g/kg, 0-120 min, plasma", "result": "95 % of control"}, {"measurement": "Insulin Maximal effect", "setting": "[1]; oral glucose challenge 1.25 g/kg, plasma", "result": "95 % of control"}, {"measurement": "Carcass ash, mean percent final body weight", "setting": "[2]; [3]", "result": "3.24 ± 0.12", "unit": "%"}, {"measurement": "Carcass ash, mean weight per rat", "setting": "[2]; [3]", "result": "12.13 ± 0.48", "unit": "g"}, {"measurement": "Carcass fat, mean percent final body weight", "setting": "[2]; [3]", "result": "22.8 ± 1.0", "unit": "%"}, {"measurement": "Carcass fat, mean weight per rat", "setting": "[2]; [3]", "result": "87.9 ± 3.8", "unit": "g"}, {"measurement": "Carcass protein, mean percent final body weight", "setting": "[2]; [3]", "result": "17.4 ± 0.3*° %"}, {"measurement": "Carcass protein, mean weight per rat", "setting": "[2]; [3]", "result": "64.8 ± 1.2", "unit": "g"}, {"measurement": "Carcass water, mean percent final body weight", "setting": "[2]; [3]", "result": "55.2 ± 0.8", "unit": "%"}, {"measurement": "Carcass water, mean weight per rat", "setting": "[2]; [3]", "result": "205.8 ± 3.1", "unit": "g"}, {"measurement": "Carcass weight, mean per rat", "setting": "[2]; [3]", "result": "375.4 ± 4.8", "unit": "g"}, {"measurement": "Plasma glucose", "setting": "[2]; 30 mg/kg po twice daily", "result": "8.6 ± 0.5", "unit": "mM"}, {"measurement": "Plasma insulin", "setting": "[2]; 30 mg/kg po twice daily", "result": "1.53 ± 0.33", "unit": "ng/mL"}, {"measurement": "Plasma leptin", "setting": "[2]; 30 mg/kg po twice daily", "result": "68.8 ± 9.4", "unit": "ng/mL"}, {"measurement": "Carcass ash, mean percent final body weight", "setting": "[2]; [4]", "result": "3.14 ± 0.1", "unit": "%"}, {"measurement": "Carcass ash, mean weight per rat", "setting": "[2]; [4]", "result": "11.38 ± 0.29", "unit": "g"}, {"measurement": "Carcass fat, mean percent final body weight", "setting": "[2]; [4]", "result": "22.3 ± 1.8", "unit": "%"}, {"measurement": "Carcass fat, mean weight per rat", "setting": "[2]; [4]", "result": "83.6 ± 6.9", "unit": "g"}, {"measurement": "Carcass protein, mean percent final body weight", "setting": "[2]; [4]", "result": "17.3 ± 0.4*° %"}, {"measurement": "Carcass protein, mean weight per rat", "setting": "[2]; [4]", "result": "62.8 ± 1.3", "unit": "g"}, {"measurement": "Carcass water, mean percent final body weight", "setting": "[2]; [4]", "result": "55.7 ± 1.2", "unit": "%"}, {"measurement": "Carcass water, mean weight per rat", "setting": "[2]; [4]", "result": "202.2 ± 3.6", "unit": "g"}, {"measurement": "Carcass weight, mean per rat", "setting": "[2]; [4]", "result": "365.6 ± 3.8", "unit": "g"}, {"measurement": "Plasma glucose", "setting": "[2]; 50 mg/kg po twice daily", "result": "7.9 ± 0.5", "unit": "mM"}, {"measurement": "Plasma insulin", "setting": "[2]; 50 mg/kg po twice daily", "result": "1.40 ± 0.41", "unit": "ng/mL"}, {"measurement": "Plasma leptin", "setting": "[2]; 50 mg/kg po twice daily", "result": "58.8 ± 11.6", "unit": "ng/mL"}]}]}
